From ChEMBL document CHEMBL5465560, “Selectivity Literature for EUbOPEN Chemogenomic Library” (2024) come the findings set out here.

Assay [1] concerns the target T1, Serine/threonine-protein kinase LATS2 (Homo sapiens) (UniProt Q9NRM7).
T1 sequence (whole entry): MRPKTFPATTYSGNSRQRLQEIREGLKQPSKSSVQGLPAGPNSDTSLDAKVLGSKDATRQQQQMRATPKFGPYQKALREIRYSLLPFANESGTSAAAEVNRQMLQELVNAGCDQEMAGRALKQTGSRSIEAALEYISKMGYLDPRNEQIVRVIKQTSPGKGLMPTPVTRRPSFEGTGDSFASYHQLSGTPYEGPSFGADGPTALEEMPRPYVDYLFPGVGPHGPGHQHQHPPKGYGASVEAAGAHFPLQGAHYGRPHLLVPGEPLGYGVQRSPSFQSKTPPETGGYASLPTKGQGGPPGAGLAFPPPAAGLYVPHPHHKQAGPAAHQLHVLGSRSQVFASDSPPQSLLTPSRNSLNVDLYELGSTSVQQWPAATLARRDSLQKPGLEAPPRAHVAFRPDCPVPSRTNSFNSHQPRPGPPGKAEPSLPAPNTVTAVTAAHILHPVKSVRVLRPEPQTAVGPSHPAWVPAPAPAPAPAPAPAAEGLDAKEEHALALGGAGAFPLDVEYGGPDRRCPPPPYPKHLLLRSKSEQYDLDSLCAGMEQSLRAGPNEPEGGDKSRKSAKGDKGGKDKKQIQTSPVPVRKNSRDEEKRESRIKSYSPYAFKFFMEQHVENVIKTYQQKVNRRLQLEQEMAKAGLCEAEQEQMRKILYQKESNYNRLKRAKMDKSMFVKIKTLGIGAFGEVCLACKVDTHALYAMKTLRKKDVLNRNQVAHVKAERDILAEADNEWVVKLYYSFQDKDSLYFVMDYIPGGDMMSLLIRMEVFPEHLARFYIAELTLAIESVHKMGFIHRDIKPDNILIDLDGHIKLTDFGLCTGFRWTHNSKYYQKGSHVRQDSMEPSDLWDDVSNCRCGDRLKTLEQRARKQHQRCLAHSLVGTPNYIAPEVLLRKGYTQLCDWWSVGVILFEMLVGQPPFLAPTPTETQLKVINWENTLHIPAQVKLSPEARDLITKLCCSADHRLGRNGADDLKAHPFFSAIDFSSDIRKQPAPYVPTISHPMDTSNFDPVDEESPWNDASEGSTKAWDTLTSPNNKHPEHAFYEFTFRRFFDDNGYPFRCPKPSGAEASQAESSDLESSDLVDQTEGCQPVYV
Briefly: Selectivity interaction (LanthaScreen Eu Kinase Binding Assay) EUB0001632a LATS2. As to conditions: at 10 µM. (In general: Time-resolved FRET reads energy transfer from a long-lived donor to a nearby acceptor.)

The target of assay [2] is T2, Serine/threonine-protein kinase TBK1 (Homo sapiens) (UniProt Q9UHD2).
T2 sequence (whole entry): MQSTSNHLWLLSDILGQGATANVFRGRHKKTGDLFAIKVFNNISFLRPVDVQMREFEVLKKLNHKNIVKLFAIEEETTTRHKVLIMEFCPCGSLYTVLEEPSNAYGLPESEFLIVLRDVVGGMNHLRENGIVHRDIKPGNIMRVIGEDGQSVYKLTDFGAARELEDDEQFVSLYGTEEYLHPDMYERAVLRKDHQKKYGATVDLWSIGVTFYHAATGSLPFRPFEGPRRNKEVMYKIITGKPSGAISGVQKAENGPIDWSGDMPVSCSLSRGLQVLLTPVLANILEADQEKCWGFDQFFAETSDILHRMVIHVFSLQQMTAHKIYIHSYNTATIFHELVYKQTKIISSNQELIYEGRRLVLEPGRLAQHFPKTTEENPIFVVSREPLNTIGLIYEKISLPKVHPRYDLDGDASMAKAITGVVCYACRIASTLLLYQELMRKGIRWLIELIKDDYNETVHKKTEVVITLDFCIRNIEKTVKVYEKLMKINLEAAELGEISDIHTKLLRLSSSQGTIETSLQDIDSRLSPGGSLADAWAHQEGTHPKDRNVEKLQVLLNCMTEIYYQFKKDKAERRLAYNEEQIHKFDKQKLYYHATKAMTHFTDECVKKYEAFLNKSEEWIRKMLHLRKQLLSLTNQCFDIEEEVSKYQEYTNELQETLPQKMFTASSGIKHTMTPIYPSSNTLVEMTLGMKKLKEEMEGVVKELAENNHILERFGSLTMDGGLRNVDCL
Briefly: Selectivity interaction (KinomeScan (DiscoverX)) EUB0000655a TBK1. As to conditions: at 10 µM.

Assay [3] has as its target T3, Serine/threonine-protein kinase Chk1 (Homo sapiens) (UniProt O14757).
T3 sequence (whole entry): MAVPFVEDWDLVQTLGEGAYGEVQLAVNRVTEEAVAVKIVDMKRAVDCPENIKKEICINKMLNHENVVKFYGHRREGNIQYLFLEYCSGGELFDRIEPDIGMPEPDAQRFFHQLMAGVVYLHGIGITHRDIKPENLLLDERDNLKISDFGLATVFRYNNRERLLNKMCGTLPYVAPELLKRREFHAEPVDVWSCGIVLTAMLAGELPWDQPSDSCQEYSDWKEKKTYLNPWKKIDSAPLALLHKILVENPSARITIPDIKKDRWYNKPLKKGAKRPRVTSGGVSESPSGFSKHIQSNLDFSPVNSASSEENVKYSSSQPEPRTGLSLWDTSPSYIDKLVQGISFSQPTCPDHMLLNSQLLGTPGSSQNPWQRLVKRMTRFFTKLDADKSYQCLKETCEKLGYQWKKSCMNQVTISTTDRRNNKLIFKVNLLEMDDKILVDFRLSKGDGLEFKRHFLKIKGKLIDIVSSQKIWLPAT
Briefly: Selectivity interaction (KinomeScan (DiscoverX)) EUB0001079a CHEK1. As to conditions: at 1 µM.

The target in assay [4] is T4, Mitogen-activated protein kinase kinase kinase 2 (Homo sapiens) (UniProt Q9Y2U5).
T4 sequence (whole entry): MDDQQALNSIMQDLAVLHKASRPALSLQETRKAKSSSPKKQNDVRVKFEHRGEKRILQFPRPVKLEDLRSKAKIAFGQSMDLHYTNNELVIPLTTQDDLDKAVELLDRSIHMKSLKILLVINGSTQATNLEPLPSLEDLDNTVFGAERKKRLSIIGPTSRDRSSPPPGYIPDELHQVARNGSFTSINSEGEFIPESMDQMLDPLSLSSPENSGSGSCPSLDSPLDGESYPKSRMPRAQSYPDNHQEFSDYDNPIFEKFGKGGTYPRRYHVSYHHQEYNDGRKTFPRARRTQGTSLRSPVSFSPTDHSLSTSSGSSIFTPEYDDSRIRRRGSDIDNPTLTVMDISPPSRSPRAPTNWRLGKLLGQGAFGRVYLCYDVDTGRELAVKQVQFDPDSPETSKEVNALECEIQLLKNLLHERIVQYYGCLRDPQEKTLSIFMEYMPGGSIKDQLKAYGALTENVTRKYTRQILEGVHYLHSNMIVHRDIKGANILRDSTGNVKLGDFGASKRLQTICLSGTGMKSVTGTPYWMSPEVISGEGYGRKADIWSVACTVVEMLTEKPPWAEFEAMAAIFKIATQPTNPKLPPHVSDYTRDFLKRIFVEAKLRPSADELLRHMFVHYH
Briefly: Selectivity interaction (KinomeScan (DiscoverX)) EUB0000695a MAP3K2. As to conditions: at 100 nM.

The target in assay [5] is Tyrosine-protein kinase BTK (Homo sapiens, UniProt Q06187). The conditions noted are these: at 1 µM.
Sequence of Tyrosine-protein kinase BTK (Q06187 whole entry): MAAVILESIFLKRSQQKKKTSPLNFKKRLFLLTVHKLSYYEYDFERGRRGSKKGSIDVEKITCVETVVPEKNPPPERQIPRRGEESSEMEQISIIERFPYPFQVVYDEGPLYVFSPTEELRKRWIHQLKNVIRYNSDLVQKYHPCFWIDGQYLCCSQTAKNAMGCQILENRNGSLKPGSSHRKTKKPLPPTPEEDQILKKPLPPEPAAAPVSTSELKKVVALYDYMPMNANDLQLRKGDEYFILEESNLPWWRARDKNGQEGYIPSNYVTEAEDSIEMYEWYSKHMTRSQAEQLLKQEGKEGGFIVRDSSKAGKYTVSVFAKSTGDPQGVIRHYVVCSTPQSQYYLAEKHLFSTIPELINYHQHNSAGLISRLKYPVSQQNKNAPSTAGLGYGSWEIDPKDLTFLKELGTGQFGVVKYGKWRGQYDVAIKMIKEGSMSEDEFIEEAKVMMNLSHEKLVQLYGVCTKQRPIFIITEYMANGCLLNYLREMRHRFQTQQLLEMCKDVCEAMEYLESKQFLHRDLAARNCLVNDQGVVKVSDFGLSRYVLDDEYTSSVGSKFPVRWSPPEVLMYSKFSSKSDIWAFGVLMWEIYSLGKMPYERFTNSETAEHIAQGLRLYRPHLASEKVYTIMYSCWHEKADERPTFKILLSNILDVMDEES

`Cn1cc(-n2cnc3c(NCc4nc5cc(Cl)c(Cl)cc5[nH]4)nc(N4CCOCC4)nc32)cn1` yielded a % of inhibition in assay [1] of 1.75%.

For `CN(C)CCOc1ccc(-c2nc(-c3ccncc3)c(-c3ccc4c(c3)CC/C4=N\O)[nH]2)cc1`, in assay [2], the % of control was found to be 84%.

Consider `Nc1cnc(N2CCc3cc(S(=O)(=O)Nc4c(F)cc(Cl)cc4F)cc(N4CCCC4=O)c32)nc1` [TP-020n], for which the % of control in assay [3] amounted to 95%.

Regarding `Cc1cc(F)c(C(=O)Nc2cccc(-c3nncn3C(C)C)n2)cc1-n1cnc(C2CC2)c1`, the % of control in assay [4] was determined as 100%.

Take `Cc1cc(-c2ccnc(Nc3cnn(C)c3)n2)ccc1CNC(=O)N1CC(OC(C)C)C1`: the % of control in assay [5] is 2.9%.
